Converted amounts (≈) assume the structure as drawn. Where two headings read alike, the source gives them in different places.
Columns and labels:
S. iniae = assay: Antibacterial assay, micro broth dilution; assay type: cell-based; details: Streptococcus iniae; micro broth dilution, LB medium, 24 hours at 37 °C; read-out: Antibacterial Activity (MIC) S. iniae
Method: (§1) The micro broth dilution method was used to evaluate the antibacterial activities of compounds 1–19 against the growth of eight common pathogens: Bacillus subtilis BS01, Micrococcus luteus, Escherichia coli ATCC 25922, Staphylococcus aureus ATCC 6538, S. aureus MRSA, Streptococcus agalactiae ATCC 13813, S. iniae, and Pseudomonas aeruginosa ATCC 9027 in 96-well polystyrene plates. Vancomycin and ciprofloxacin were used as positive controls. Briefly, wells containing 100 μL bacteria dilutions (OD600 = 0.01) in Luria–Bertani (LB) medium were supplemented with different concentrations of 1–19 (80, 40, 20, 10, 5, 2.5, 1.25, and 0.625 μg/mL), vancomycin, and ciprofloxacin (40, 20, 10, 5, 2.5, 1.25, 0.625, and 0.3125 μg/mL), respectively. The MICs were determined after 24 hours’ incubation at 37 °C with the tested compounds.

[1] = system: Streptococcus agalactiae ATCC 13813; assay: Antibacterial assay, micro broth dilution; assay type: cell-based; details: ATCC13813, micro broth dilution, LB medium, 24 hours at 37 °C, read-out: Antibacterial Activity (MIC) S. agalactiae
Method: as §1

[2] = system: Escherichia coli ATCC 25922; assay: Antibacterial assay, micro broth dilution; assay type: cell-based; details: ATCC25922, micro broth dilution, LB medium, 24 hours at 37 °C, read-out: Antibacterial Activity (MIC) E. coli
Method: as §1

[3] = system: Pseudomonas aeruginosa ATCC 9027; assay: Antibacterial assay, micro broth dilution; assay type: cell-based; details: ATCC9027, micro broth dilution, LB medium, 24 hours at 37 °C, read-out: Antibacterial Activity (MIC) P. aeruginosa
Method: as §1

Bacillus subtilis BS01 = assay: Antibacterial assay, micro broth dilution; assay type: cell-based; details: BS01, micro broth dilution, LB medium, 24 hours at 37 °C, read-out: Antibacterial Activity (MIC) B. subtilis
Method: as §1

[4] = system: Staphylococcus aureus ATCC 6538; assay: Antibacterial assay, micro broth dilution; assay type: cell-based; details: ATCC6538, micro broth dilution, LB medium, 24 hours at 37 °C, read-out: Antibacterial Activity (MIC) S. aureus
Method: as §1

S. aureus MRSA = assay: Antibacterial assay, micro broth dilution; assay type: cell-based; details: Staphylococcus aureus, read-out: Antibacterial Activity (MIC) MRSA
Method: as §1

Micrococcus luteus = assay: Antibacterial assay, micro broth dilution; assay type: cell-based; details: read-out: Antibacterial Activity (MIC) M. luteus
Method: as §1

brine shrimps = assay: Brine shrimp lethality bioassay; assay type: in vivo; details: Table 3
From the text: The methods were the same as those used in our previous studies.

[5] = Cytotoxicity, CCK-8 method; assay type: cell-based; details: human
Method: (§2) Cytotoxic activity was evaluated using the human lung adenocarcinoma cell line H1975 and human hepatocellular carcinoma cell line HepG-2, using the CCK-8 method as described in our previous study. Briefly, each of the test compounds was dissolved in DMSO and further diluted to give final concentrations of 80, 40, 20, 10, 5, 2.5, and 1.25 μM, respectively. H1975 cells or HepG-2 cells (5 × 10^3 […]) were seeded in 96-well plates and treated with compounds at the indicated concentration for 24 hours and then 10 μL CCK-8 reagent was added to each well. The plates were incubated at 37 °C for another 4 hours. Finally, the optical density was measured at a wavelength of 450 nm with a Bio-Rad microplate reader. Dose–response curves were generated, and the IC50 values were calculated from the linear portion of log dose–response curves.

[6] = Cytotoxicity, CCK-8 method; assay type: cell-based; details: human; remark: listed apart in the source
Method: as §2

[7] = micro broth dilution, LB medium, 24 hours at 37 °C
[8] = H1975 cells (lung adenocarcinoma cell line), H1975 cells, CCK-8, 24 hours treatment, read-out: Cytotoxicity (IC50) against H1975
[9] = HepG-2 cells (hepatocellular carcinoma cell line), HepG-2 cells, CCK-8, 24 hours treatment, read-out: Cytotoxicity (IC50) against HepG-2

Row | SMILES | MIC (S. iniae) | MIC [1] | MIC [2] | MIC [3] | MIC (Bacillus subtilis BS01) | MIC [4] | MIC (S. aureus MRSA; 24 h) | MIC (Micrococcus luteus; 24 h) | Toxicity (TC50) Brine Shrimp (brine shrimps) | MIC (S. aureus MRSA; [7]) | MIC (Micrococcus luteus; [7]) | IC50 at 24 h [5] | IC50 at 24 h [6] | IC50 at 24 h [5, 8] | IC50 at 24 h [6, 9]
1 | O=C(O)c1cn(C2CC2)c2cc(N3CCNCC3)c(F)cc2c1=O [CFN, Ciprofloxacin, reference compound] | 2.5 µg/mL (≈ 7.54 µM) | 5 µg/mL (≈ 15.1 µM) | 0.6 µg/mL (≈ 1.81 µM) | 0.6 µg/mL (≈ 1.81 µM) | 0.6 µg/mL (≈ 1.81 µM) | 0.6 µg/mL (≈ 1.81 µM) |  |  |  |  |  |  |  |  | 
2 | CN[C@H](CC(C)C)C(=O)N[C@H]1C(=O)N[C@@H](CC(N)=O)C(=O)N[C@H]2C(=O)N[C@H]3C(=O)N[C@H](C(=O)N[C@H](C(=O)O)c4cc(O)cc(O)c4-c4cc3ccc4O)[C@H](O)c3ccc(c(Cl)c3)Oc3cc2cc(c3O[C@@H]2O[C@H](CO)[C@@H](O)[C@H](O)[C@H]2O[C@H]2C[C@](C)(N)[C@H](O)[C@H](C)O2)Oc2ccc(cc2Cl)[C@H]1O [VMN, Vancomycin, reference compound] |  |  |  |  |  |  | 2.5 µg/mL (≈ 1.73 µM) | 0.6 µg/mL (≈ 0.414 µM) |  |  |  |  |  |  | 
3 | O=C1N2C3OC=CC4SC2(CC3C4O)C(=O)NC12Cc1ccccc1O2 (centres unmarked) [Compound 1, Lecanicillium A] | > 80 µg/mL | > 80 µg/mL | > 80 µg/mL | > 80 µg/mL | 60 µg/mL (≈ 161 µM) | > 80 µg/mL |  |  | >80 µg/mL | > 80 µg/mL | > 80 µg/mL |  |  |  | 
4 | CSC12CC3=COC=CC(OC(C)=O)C3N1C(=O)C1(SC)CC34OC3C3OC3C(OC(C)=O)C4N1C2=O (centres unmarked) [Compound 3, Lecanicillium C] | > 80 µg/mL | > 80 µg/mL | > 80 µg/mL | > 80 µg/mL | > 80 µg/mL | > 80 µg/mL |  |  | >80 µg/mL | > 80 µg/mL | > 80 µg/mL | > 80 µM | > 80 µM |  | 
5 | CS[C@@]12CC3=CC=C[C@H](O)[C@H]3N1C(=O)[C@]1(SC)CC3=COC=C[C@H](O)[C@H]3N1C2=O [Compound 14, bisdethiobis(methylsulfanyl)deacetylapoaranotin] | 40 µg/mL (≈ 92.1 µM) | > 80 µg/mL | > 80 µg/mL | > 80 µg/mL | > 80 µg/mL | > 80 µg/mL |  |  | >80 µg/mL | > 80 µg/mL | > 80 µg/mL | > 80 µM | > 80 µM |  | 
6 | CS[C@@]12CC3=COC=C[C@H](OC(C)=O)[C@H]3N1C(=O)[C@]1(SC)CC3=COC=C[C@H](OC(C)=O)[C@H]3N1C2=O [Compound 8, bisdethiobis(methylsulfanyl)acetylaranotin] | > 80 µg/mL | > 80 µg/mL | > 80 µg/mL | > 80 µg/mL | > 80 µg/mL | > 80 µg/mL |  |  |  | > 80 µg/mL | > 80 µg/mL | > 80 µM | > 80 µM |  | 
7 | CS[C@@H]1NC(=O)[C@@](Cc2ccccc2)(SC)NC1=O [Compound 19, citriperazine B] | > 80 µg/mL | > 80 µg/mL | > 80 µg/mL | > 80 µg/mL | 80 µg/mL (≈ 270 µM) | > 80 µg/mL |  |  |  | > 80 µg/mL | 70 µg/mL (≈ 236 µM) |  |  | > 80 µM | > 80 µM
8 | CS[C@@]12CC3=COC=C[C@H](OC(C)=O)[C@H]3N1C(=O)[C@]1(SC)CC3=CC=C[C@H](O)[C@H]3N1C2=O [Compound 13, bisdethiobis(methylsulfanyl)apoaranotin] | > 80 µg/mL | > 80 µg/mL | > 80 µg/mL | > 80 µg/mL | > 80 µg/mL | > 80 µg/mL |  |  |  | > 80 µg/mL | > 80 µg/mL | > 80 µM | > 80 µM |  | 
9 | CS[C@@]12Cc3ccccc3N1C(=O)[C@]1(SC)CC3=COC=C[C@H](O)C3N1C2=O (some centres unmarked) [Compound 17, 12,12a-anhydro-desacetyl-bis-dethio-7a, 14a-di-(methylmercapto)-apoaranotin] | 30 µg/mL (≈ 72 µM) | 70 µg/mL (≈ 168 µM) | > 80 µg/mL | > 80 µg/mL | 80 µg/mL (≈ 192 µM) | > 80 µg/mL |  |  |  | > 80 µg/mL | > 80 µg/mL | 35.2 µM | > 80 µM |  | 
10 | CS[C@@]12CC3=COC=C[C@H](OC(C)=O)[C@H]3N1C(=O)[C@]1(SC)CC3=COC=C[C@H](O)[C@H]3N1C2=O [Compound 10, bisdethiobis(methylsulfanyl)-aranotin] | > 80 µg/mL | > 80 µg/mL | > 80 µg/mL | > 80 µg/mL | > 80 µg/mL | > 80 µg/mL |  |  | >80 µg/mL | > 80 µg/mL | > 80 µg/mL | > 80 µM | > 80 µM |  | 
11 | CS[C@@]1(Cc2ccccc2)NC(=O)[C@@](Cc2ccccc2)(SC)NC1=O [Compound 7, emethacin B] | > 80 µg/mL | > 80 µg/mL | > 80 µg/mL | > 80 µg/mL | > 80 µg/mL | > 80 µg/mL |  |  |  | > 80 µg/mL | > 80 µg/mL |  |  | 16.9 µM | > 80 µM
12 | CS[C@@]12CC3=CC=C[C@H](OC(C)=O)[C@H]3N1C(=O)[C@]1(SC)CC3=COC=C[C@H](O)[C@H]3N1C2=O [Compound 11, 8-acetyl-bisdethiobis(methylsulfanyl)apoaranotin] | 50 µg/mL (≈ 105 µM) | > 80 µg/mL | > 80 µg/mL | > 80 µg/mL | 60 µg/mL (≈ 126 µM) | > 80 µg/mL |  |  | >80 µg/mL | > 80 µg/mL | > 80 µg/mL | 69.3 µM | > 80 µM |  | 
13 | CS[C@@]12Cc3ccccc3N1C(=O)[C@]1(SC)CC3=COC=C[C@H](OC(C)=O)C3N1C2=O (some centres unmarked) [Compound 16, versicolor A] | > 80 µg/mL | 70 µg/mL (≈ 153 µM) | > 80 µg/mL | > 80 µg/mL | 70 µg/mL (≈ 153 µM) | > 80 µg/mL |  |  |  | > 80 µg/mL | > 80 µg/mL | 7.2 µM | > 80 µM |  | 
14 | CSC12CC3=COC=CC(OC(C)=O)C3N1C(=O)C1(SC)CC3(O)C=CC(=O)C(OC(C)=O)C3N1C2=O (centres unmarked) [Compound 4, Lecanicillium D] | 40 µg/mL (≈ 72.6 µM) | > 80 µg/mL | > 80 µg/mL | > 80 µg/mL | 50 µg/mL (≈ 90.8 µM) | > 80 µg/mL |  |  | 80 µg/mL | > 80 µg/mL | > 80 µg/mL | 71.5 µM | > 80 µM |  | 
15 | CS[C@@]12CC3=COC=C[C@H](O)[C@H]3N1C(=O)[C@]1(SC)CC3=COC=C[C@H](O)[C@H]3N1C2=O [Compound 9, bisdethiobis(methylsulfanyl)deacetylaranotin] | > 80 µg/mL | > 80 µg/mL | > 80 µg/mL | > 80 µg/mL | > 80 µg/mL | > 80 µg/mL |  |  | >80 µg/mL | > 80 µg/mL | > 80 µg/mL | > 80 µM | > 80 µM |  | 
16 | CS[C@@]12CC3=CC=C[C@H](OC(C)=O)[C@H]3N1C(=O)[C@]1(SC)CC3=COC=C[C@H](OC(C)=O)[C@H]3N1C2=O [Compound 12, bisdethiobis(methylsulfanyl)acetylapoaranotin] | > 80 µg/mL | 50 µg/mL (≈ 96.4 µM) | > 80 µg/mL | > 80 µg/mL | > 80 µg/mL | > 80 µg/mL |  |  | 50 µg/mL | > 80 µg/mL | 50 µg/mL (≈ 96.4 µM) | > 80 µM | > 80 µM |  | 
17 | CS[C@@]1(Cc2ccccc2)NC(=O)[C@H](Cc2ccccc2)NC1=O [Compound 6, Lecanicillium F] | > 80 µg/mL | > 80 µg/mL | > 80 µg/mL | > 80 µg/mL | > 80 µg/mL | > 80 µg/mL |  |  |  | > 80 µg/mL | > 80 µg/mL |  |  | > 80 µM | > 80 µM

Source: article PMC10672332, “Lecanicilliums A–F, Thiodiketopiperazine-Class Alkaloids from a Mangrove Sediment-Derived Fungus Lecanicillium kalimantanense” (Marine Drugs, 2023)
